Results reported in PMC7259758 (PLoS ONE, 2020).

Legend:
AKT3 = molecular target: T1, AKT3 (Homo sapiens, UniProt Q9Y243); assay: Radiometric protein kinase assay (Eurofins); format: biochemical; details: ATP 45 μM
T1 construct: purchased Eurofins, Dundee, Scotland
Procedure: (§1) Enzymatic biochemical activities were evaluated in radiometric protein kinase assays (Eurofins, Dundee, Scotland). Kinases are incubated with buffer, substrate and [γ-^33P]-ATP (specific activity approx. 500 cpm/pmol, concentration as required). The reaction is initiated by the addition of the MgATP mix. After incubation for 40 minutes at room temperature, the reaction is stopped by the addition of 3% phosphoric acid solution. 10 μL of the reaction is then spotted onto a P30 filtermat and washed three times for 5 minutes in 75 mM phosphoric acid and once in methanol prior to drying and scintillation counting. All compounds are prepared to 50x final assay concentration in 100% DMSO. Positive control wells contain all components of the reaction with 2% DMSO. Blank wells contain all components of the reaction, with a reference inhibitor replacing the compound of interest. Each kinase is assigned a standard assay concentration of ATP within 20 μM of its apparent Km. Compounds were screened at 1 μM in duplicate or tested at 10 concentrations at half log dilution starting from 10 μM in singlicate. Dose response curves were fitted with four parameter logistic curve to obtain IC50 values. […]
(§2) Staurosporine is used as reference for all tested enzymes except for SRPK3 (reference inhibitor: K-252a. Nocardiopsis sp), NEK2 (reference inhibitor: […]), and CK2, CK2α2, MAPK1, MAPK2 (reference inhibitor: PKR Inhibitor). See Table 1 below for additional details.

CLK3(h) = molecular target: T2, CLK3(h) (Homo sapiens, UniProt P49761); assay: Radiometric protein kinase assay (Eurofins); format: biochemical; details: ATP 90 μM
T2 construct: purchased Eurofins, Dundee, Scotland
Procedure: as §1, §2

DYRK1A(h) = molecular target: T3, DYRK1A(h) (Homo sapiens, UniProt Q13627); assay: Radiometric protein kinase assay (Eurofins); format: biochemical; details: ATP 45 μM
T3 construct: purchased Eurofins, Dundee, Scotland
Procedure: as §1, §2

SRPK3 (h) = molecular target: T4, SRPK3 (h) (Homo sapiens, UniProt Q9UPE1); assay: Radiometric protein kinase assay (Eurofins); format: biochemical; details: ATP 15 μM
T4 construct: purchased Eurofins, Dundee, Scotland
Procedure: as §1, §2

CLK4(h) = molecular target: T5, CLK4(h) (Homo sapiens, UniProt Q9HAZ1); assay: Radiometric protein kinase assay (Eurofins); format: biochemical; details: ATP 10 μM
T5 construct: purchased Eurofins, Dundee, Scotland
Procedure: as §1, §2

SRPK1(h) = molecular target: T6, SRPK1(h) (Homo sapiens, UniProt Q96SB4); assay: Radiometric protein kinase assay (Eurofins); format: biochemical; details: ATP 10 μM
T6 construct: purchased Eurofins, Dundee, Scotland
Procedure: as §1, §2

CK2 (h) = molecular target: T7, CK2 (h) (Homo sapiens, UniProt P68400); assay: Radiometric protein kinase assay (Eurofins); format: biochemical; details: 40 min; ATP 10 μM; read-out: CK2 IC50
T7 construct: purchased Eurofins, Dundee, Scotland
Procedure: as §1, §2

MAPK2 (h) = molecular target: T8, MAPK2 (h) (Homo sapiens, UniProt P28482); assay: Radiometric protein kinase assay (Eurofins); format: biochemical; details: 40 min; ATP 155 μM; read-out: MAPK2 IC50
T8 construct: purchased Eurofins, Dundee, Scotland
Procedure: as §1, §2

CK2α2 (h) = molecular target: T9, CK2α2 (h) (Homo sapiens, UniProt P19784); assay: Radiometric protein kinase assay (Eurofins); format: biochemical; details: 40 min; ATP 10 μM; read-out: CK2a2 IC50
T9 construct: purchased Eurofins, Dundee, Scotland
Procedure: as §1, §2

MAPK1 (h) = molecular target: T10, MAPK1 (h) (Homo sapiens, UniProt P27361); assay: Radiometric protein kinase assay (Eurofins); format: biochemical; details: 40 min; read-out: MAPK1 IC50
T10 construct: purchased Eurofins, Dundee, Scotland
Procedure: as §1, §2

[1] = tested on: triple-exon skipping of MDM2 pre-mRNA in SK-MEL-2/Luc-MDM2 cells; assay: TESLR (Triple Exon Skipping Luciferase Reporter) dose response; details: Homo sapiens, SK-MEL-2, 4 h, read-out: TESLR EC50
Procedure: SK-MEL-2/MDM2-Luc stable cells were cultured in MEM medium with Earle's salts and L-glutamine containing 1 mM sodium pyruvate, 10% FCS and 10 mM Hepes and plated at a density of 10,000/well in 96-well plates and incubated overnight at 37°C in 5% CO2. The following day, cells were treated with serial dilutions of compounds for 4 hrs, ONE-Glo reagents (Promega) were added to measure the luciferase activity on an EnVision plate reader. SD6 and 0.5% DMSO were used as positive and negative controls, respectively. Relative luminescent units were plotted against corresponding drug concentrations and fitted with a standard four parameter sigmoidal curve with GraphPad Prism.
The TESLR assay in SK-MEL-2/Luc-MDM2 cells with 4 hour treatment. SK-MEL-2/Luc-MDM2 stable cells were plated at a density of 20,000 cells/well in 96-well plates and incubated overnight at 37°C in 5% CO2. The following day, cells were treated with either 0.5% DMSO or serial dilution of hits identified from the library screen in 0.5% DMSO for 4 hours. ONE-Glo™ EX reagent (Promega) was added to measure the luciferase activity using an EnVision plate reader. Relative luminescent units were plotted against corresponding drug concentrations and fitted with a standard four parameter sigmoidal curve with GraphPad Prism.
SK-MEL-2/Luc-MDM2 stable cells were plated at a density of 20,000 cells/well in 96-well plates and incubated overnight at 37°C in 5% CO2. The following day, cells were treated with serial dilutions of the indicated compounds for 4 hours and ONE-Glo™ EX reagents (Promega) were added to measure the luciferase activity.

CLK2(h) = molecular target: T11, CLK2(h) (Homo sapiens, UniProt P49760); assay: Radiometric protein kinase assay (Eurofins); format: biochemical; details: ATP 10 μM
T11 construct: purchased Eurofins, Dundee, Scotland
Procedure: (§3) Enzymatic biochemical activities were evaluated in radiometric protein kinase assays (Eurofins, Dundee, Scotland). Kinases are incubated with buffer, substrate and [γ-^33P]-ATP (specific activity approx. 500 cpm/pmol, concentration as required). The reaction is initiated by the addition of the MgATP mix. After incubation for 40 minutes at room temperature, the reaction is stopped by the addition of 3% phosphoric acid solution. 10 μL of the reaction is then spotted onto a P30 filtermat and washed three times for 5 minutes in 75 mM phosphoric acid and once in methanol prior to drying and scintillation counting. All compounds are prepared to 50x final assay concentration in 100% DMSO. Positive control wells contain all components of the reaction with 2% DMSO. Blank wells contain all components of the reaction, with a reference inhibitor replacing the compound of interest. […] Compounds were screened at 1 μM in duplicate or tested at 10 concentrations at half log dilution starting from 10 μM in singlicate. Dose response curves were fitted with four parameter logistic curve to obtain IC50 values.

FAK (h) = molecular target: T12, FAK (h) (Homo sapiens, UniProt Q05397); assay: Radiometric protein kinase assay (Eurofins); format: biochemical; details: 40 min; ATP 70 μM; read-out: FAK IC50
T12 construct: purchased Eurofins, Dundee, Scotland
Procedure: as §3

[2] = tested on: RBM39 pre-mRNA splicing in Rh18 cells; assay: RT-PCR confirmation of splicing changes, RBM39; format: cell-based; details: 4 h, compound 1 10 μM, compound 2 5 μM
Procedure: RH-18 cells were cultured in RPMI 1640 medium containing 10% FCS. Cells are all maintained in humidified incubator with 5% CO2 at 37°C. Rh18 cells were exposed to 0.5% DMSO or SD6 10 μM, Cpd1 10 μM, Cpd2 5 μM or Cpd3 10 μM for 4 h. Total RNA was extracted and converted to cDNA. PCR was performed using NEB Q5 Master Mix and specific primers listed below (Table 2) according to the manufacturer’s instruction and standard PCR protocols: 50 ng cDNA and 30 μl of the final reaction volume was used. PCR products were subjected to 3% agarose gel electrophoresis.
AS patterns were identified with compound treatment for MDM2 and RBM39 transcripts. Ubiquitin (UBQ) transcripts were used as a control since these are not spliced. […] Rh18 cells were treated with either DMSO control or compounds for 4 h. Total RNA was extracted and converted to cDNA. PCR was performed using corresponding primers and PCR products were subjected to 3% agarose gel electrophoresis.

SF3B1 = molecular target: T13, SF3B1 (Homo sapiens, UniProt O75533+Q7RTV0); assay: Competitive antagonist assay (TESLR in the presence of SD6 or hit compound); format: cell-based; details: 6 μM compound for one hour, then serial dilutions of sudemycinol C for another 4 hours
T13 construct: endogenous in cells
Procedure: SK-MEL-2/Luc-MDM2 stable cells were plated at a density of 20,000 cells/well in 96-well plates and incubated overnight at 37°C in 5% CO2.[27, 28] The following day, cells were treated with 14 analogs using serial dilution for one hour. The list of compounds screened as potential TESLR antagonists are show in SI file. After one-hour pre-treatment, 4 μM of SD6 were added to the pre-treated cells for another 4 hours. Either 0.5% DMSO or serial dilutions of SD6 were used to treat cells for 4 hours as controls. At the end of incubation time, ONE-Glo™ EX reagents (Promega) were added to measure the luciferase activity. […]
Fig 6 Competitive antagonist assay. (Left Panel) The assay that identified two antagonists of SD6 activity in the TESLR screen, which are useful for the determination of SF3B1 binding. Relative luminescent units were plotted against corresponding drug concentrations and fitted with a standard four parameter sigmoidal curve with GraphPad Prism. (Right Panel) The structures of the antagonists and SD6. See SI for chemistry details.
. SK-MEL-2/Luc-MDM2 stable cells were plated at a density of 20000/well in 96-well plates and incubated overnight at 37°C in 5% CO2. […]. After one-hour pre-treatment, serial dilutions of the sudemycinol C were added to the pre-treated cells for another 4 hours. […]. At the end of incubation time, ONE-Glo™ EX reagents (Promega) were added to measure the luciferase activity. […]. DR: dose response.

T4 sequence (Q9UPE1 whole entry): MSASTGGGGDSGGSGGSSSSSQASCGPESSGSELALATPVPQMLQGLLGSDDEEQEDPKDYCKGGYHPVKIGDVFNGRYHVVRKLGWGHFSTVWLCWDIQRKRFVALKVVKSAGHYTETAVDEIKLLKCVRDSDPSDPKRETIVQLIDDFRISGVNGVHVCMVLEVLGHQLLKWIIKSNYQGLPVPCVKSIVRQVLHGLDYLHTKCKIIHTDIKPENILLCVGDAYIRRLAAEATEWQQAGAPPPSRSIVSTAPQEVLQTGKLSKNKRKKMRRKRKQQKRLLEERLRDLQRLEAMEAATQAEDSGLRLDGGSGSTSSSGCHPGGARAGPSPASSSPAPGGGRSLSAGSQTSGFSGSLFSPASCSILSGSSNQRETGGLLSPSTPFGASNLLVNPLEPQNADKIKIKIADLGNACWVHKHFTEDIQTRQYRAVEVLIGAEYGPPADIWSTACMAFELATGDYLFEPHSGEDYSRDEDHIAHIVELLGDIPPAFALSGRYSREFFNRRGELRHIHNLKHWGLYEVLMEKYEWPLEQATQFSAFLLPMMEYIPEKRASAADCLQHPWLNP
T1 sequence (Q9Y243 whole entry): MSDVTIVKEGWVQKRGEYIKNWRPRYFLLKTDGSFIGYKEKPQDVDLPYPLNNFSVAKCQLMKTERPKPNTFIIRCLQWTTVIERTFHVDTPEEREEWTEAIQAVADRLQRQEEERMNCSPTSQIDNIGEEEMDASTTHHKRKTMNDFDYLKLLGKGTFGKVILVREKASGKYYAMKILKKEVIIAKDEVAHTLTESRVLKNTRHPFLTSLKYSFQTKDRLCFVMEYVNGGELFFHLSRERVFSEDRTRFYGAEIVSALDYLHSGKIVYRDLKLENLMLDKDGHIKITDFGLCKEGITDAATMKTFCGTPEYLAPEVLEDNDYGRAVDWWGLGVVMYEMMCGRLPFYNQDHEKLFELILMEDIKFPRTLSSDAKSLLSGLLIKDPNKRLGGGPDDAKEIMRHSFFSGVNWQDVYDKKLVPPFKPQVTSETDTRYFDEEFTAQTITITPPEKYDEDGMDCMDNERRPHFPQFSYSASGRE
T7 sequence (P68400 whole entry): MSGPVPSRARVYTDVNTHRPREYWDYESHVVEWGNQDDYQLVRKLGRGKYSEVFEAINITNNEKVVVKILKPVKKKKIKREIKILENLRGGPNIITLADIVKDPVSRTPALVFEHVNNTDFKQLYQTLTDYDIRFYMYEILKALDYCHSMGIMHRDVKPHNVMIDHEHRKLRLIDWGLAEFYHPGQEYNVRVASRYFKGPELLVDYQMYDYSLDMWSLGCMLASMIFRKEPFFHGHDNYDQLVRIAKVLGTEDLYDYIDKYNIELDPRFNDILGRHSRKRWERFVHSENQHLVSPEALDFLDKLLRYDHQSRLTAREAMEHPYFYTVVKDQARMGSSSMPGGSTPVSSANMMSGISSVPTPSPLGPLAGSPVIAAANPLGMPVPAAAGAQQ
T7 sequence (P67870 whole entry partner): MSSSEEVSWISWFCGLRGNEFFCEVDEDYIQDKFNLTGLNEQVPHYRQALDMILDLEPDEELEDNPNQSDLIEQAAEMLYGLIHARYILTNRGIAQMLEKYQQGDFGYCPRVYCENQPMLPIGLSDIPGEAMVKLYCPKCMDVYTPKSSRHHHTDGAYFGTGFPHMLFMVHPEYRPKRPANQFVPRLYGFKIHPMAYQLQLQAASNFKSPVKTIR
T5 sequence (Q9HAZ1 whole entry): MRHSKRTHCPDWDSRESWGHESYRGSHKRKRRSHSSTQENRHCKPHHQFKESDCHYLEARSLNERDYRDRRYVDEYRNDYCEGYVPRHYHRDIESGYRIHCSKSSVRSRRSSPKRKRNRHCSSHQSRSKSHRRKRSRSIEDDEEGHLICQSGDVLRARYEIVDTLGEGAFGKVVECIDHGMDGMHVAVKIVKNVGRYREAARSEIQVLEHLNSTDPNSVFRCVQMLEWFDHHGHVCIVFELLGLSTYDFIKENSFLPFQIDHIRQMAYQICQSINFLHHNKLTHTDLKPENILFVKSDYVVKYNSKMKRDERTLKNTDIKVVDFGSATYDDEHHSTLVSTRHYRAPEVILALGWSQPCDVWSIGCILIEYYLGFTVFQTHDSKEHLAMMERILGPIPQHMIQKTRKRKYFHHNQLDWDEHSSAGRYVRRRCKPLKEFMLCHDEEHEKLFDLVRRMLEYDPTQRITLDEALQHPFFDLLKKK
T8 sequence (P28482 whole entry): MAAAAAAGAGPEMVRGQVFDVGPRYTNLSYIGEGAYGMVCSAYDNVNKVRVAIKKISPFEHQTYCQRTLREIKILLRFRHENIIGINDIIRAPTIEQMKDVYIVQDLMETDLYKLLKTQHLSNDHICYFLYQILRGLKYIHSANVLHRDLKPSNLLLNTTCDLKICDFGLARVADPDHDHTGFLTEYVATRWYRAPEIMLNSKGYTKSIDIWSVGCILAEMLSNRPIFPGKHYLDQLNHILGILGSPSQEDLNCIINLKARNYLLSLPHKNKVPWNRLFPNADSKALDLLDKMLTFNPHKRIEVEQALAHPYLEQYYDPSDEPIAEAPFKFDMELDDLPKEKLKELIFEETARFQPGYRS
T2 sequence (P49761 whole entry): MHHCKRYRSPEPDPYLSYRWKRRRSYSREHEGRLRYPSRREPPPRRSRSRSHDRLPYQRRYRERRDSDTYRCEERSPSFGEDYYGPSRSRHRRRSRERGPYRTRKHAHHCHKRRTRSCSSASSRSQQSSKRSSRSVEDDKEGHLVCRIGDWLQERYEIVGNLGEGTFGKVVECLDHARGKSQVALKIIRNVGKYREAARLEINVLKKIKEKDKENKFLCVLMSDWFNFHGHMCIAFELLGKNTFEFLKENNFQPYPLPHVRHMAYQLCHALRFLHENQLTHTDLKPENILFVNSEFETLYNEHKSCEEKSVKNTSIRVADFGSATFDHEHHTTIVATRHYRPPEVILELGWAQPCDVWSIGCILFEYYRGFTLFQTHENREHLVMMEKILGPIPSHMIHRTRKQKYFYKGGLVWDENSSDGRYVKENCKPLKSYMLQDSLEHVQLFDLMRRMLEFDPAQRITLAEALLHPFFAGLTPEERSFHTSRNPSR
T10 sequence (P27361 whole entry): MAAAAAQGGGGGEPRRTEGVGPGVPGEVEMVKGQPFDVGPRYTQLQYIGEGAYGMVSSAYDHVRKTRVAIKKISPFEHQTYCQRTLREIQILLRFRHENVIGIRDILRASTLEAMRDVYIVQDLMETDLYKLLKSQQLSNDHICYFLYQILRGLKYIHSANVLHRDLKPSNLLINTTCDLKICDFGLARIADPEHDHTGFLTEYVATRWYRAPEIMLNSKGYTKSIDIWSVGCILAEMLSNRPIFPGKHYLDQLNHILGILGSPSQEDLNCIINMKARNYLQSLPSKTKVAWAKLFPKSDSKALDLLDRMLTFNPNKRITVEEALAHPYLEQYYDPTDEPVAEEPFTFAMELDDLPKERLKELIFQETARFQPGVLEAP
T11 sequence (P49760 whole entry): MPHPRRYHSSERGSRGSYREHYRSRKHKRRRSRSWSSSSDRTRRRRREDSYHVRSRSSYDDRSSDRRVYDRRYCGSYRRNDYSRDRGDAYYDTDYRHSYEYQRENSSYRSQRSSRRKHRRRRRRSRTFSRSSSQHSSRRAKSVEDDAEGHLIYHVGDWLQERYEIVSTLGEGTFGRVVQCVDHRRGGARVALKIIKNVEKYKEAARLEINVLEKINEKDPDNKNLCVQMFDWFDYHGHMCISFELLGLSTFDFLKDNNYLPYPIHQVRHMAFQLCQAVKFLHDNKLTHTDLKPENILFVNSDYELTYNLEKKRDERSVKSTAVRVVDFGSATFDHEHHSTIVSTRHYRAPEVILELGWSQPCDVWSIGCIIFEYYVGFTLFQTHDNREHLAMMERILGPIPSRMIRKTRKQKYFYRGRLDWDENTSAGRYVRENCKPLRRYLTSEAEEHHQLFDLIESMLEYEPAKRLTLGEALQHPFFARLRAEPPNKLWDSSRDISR
T12 sequence (Q05397 whole entry): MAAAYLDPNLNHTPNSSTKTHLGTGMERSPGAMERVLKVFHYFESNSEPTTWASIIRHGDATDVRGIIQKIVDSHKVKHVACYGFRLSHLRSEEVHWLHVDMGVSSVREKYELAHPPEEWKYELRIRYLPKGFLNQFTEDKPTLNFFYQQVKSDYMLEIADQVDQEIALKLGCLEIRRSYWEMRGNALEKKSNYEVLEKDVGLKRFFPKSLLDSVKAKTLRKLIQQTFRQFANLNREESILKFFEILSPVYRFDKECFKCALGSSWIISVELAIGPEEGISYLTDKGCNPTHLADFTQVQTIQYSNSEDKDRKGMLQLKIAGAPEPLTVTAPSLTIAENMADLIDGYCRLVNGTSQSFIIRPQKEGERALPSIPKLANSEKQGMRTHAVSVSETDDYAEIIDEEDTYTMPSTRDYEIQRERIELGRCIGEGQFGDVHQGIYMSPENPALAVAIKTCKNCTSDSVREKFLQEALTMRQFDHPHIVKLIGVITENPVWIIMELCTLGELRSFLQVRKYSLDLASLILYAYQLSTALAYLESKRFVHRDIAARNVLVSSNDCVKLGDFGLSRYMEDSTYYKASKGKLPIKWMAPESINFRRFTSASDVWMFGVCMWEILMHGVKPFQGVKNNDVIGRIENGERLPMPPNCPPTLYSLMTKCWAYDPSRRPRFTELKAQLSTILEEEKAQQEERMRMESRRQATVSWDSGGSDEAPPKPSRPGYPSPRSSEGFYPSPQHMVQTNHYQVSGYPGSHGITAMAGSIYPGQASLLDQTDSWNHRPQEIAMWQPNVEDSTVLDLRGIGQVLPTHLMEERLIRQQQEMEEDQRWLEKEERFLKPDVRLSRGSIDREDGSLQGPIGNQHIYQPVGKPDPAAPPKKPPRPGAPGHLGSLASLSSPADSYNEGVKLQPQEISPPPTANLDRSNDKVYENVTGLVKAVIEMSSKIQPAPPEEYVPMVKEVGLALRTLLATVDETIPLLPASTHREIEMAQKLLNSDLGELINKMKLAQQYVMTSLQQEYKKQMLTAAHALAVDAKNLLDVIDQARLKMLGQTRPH

Row | SMILES | inhibition at 1 µM (AKT3; 40 min, read-out: AKT3 IC50) [%] | IC50 (CLK3(h)) [nM] | IC50 (DYRK1A(h)) [nM] | inhibition at 1 µM (SRPK3 (h); 40 min, read-out: SRPK3 IC50) [%] | IC50 (CLK4(h)) [nM] | inhibition at 1 µM (SRPK1(h); 40 min, read-out: SRPK1 IC50) [%] | inhibition at 1 µM (CK2 (h)) [%] | inhibition at 1 µM (MAPK2 (h)) [%] | inhibition at 1 µM (CK2α2 (h)) [%] | inhibition at 1 µM (MAPK1 (h)) [%] | EC50 [1] [nM] | IC50 (CLK2(h)) [nM] | inhibition at 1 µM (FAK (h)) [%] | RBM39 alternative splicing (AS) pattern by RT-PCR [2] | Antagonism of the compound's TESLR activity by sudemycinol C (SF3B1) | IC50 (AKT3) [nM] | inhibition at 1 µM (DYRK1A(h); 40 min, read-out: DYRK1A IC50) [%] | IC50 (SRPK3 (h)) [nM] | IC50 (SRPK1(h)) [nM]
1 | CNC(=O)c1nn(C)c2c1C(C)(C)Cc1cnc(Nc3ccc(N4CCN(C)CC4)cc3)nc1-2 [Compound 1, milciclib] | < 50 | 425 | 17 | < 50 | 13 | < 50 | < 50 | < 50 | < 50 | < 50 | 9190 | 1 | < 50 | transcript at 673 bp showing the greatest abundance | did not antagonize |  |  |  | 
2 | Cc1nc(Nc2[nH]nc3c2CN(C(=O)N[C@H](CN(C)C)c2ccccc2)C3(C)C)c2sccc2n1 [Compound 2, PF-3758309] |  | 485 |  |  | 48 |  | < 50 | < 50 | < 50 | < 50 | 3440 | 6 | < 50 | transcript at 673 bp showing the greatest abundance | did not antagonize | 54 | < 50 | 189 | 170
